Measurements from patent US10035840B2, “Targeted coagulation factors and method of using the same” (Bayer HealthCare LLC, priority 2008, dated 2018).
Positions of bridges follow the written chain, without caps; N, C: chain ends. Non-standard residues stand in square brackets, D forms with d. Residues, ends and D or L forms follow the SMILES beside them. Groups on a side chain read outwards from the residue. *: point of attachment. FITC = O=C1OC2(c3ccc(O)cc3Oc3cc(O)ccc32)c2ccc(NC(=S)*)cc21; Propanoyl(3-maleimido) = O=C1C=CC(=O)N1CCC(=O)*; hArg = N=C(N)NCCCC[C@H](N)C(=O)O; Ahx = NCCCCCC(=O)O; Mpa = O=C(O)CCS

Target: T1, GPIIb-IIIa (Homo sapiens, UniProt P05106+P08514)
T1 construct: purchased Innovative Research, Novi, Mich
Test: Solid phase binding assay: competition of fibrinogen binding to immobilized GPIIb-IIIa
Method: Peptide binding to GPIIb-IIIa was measured using a solid phase binding assay in which competition of fibrinogen binding by testing compounds is measured. The assay was performed as follows. Purified GPIIb-IIIa (Innovative Research, Novi, Mich.) was coated onto 96-well Immulon-B plates at […]×2 μg/mL, diluted in Buffer A (20 mM Tris pH 7.5, 0.15 M NaCl, and 1 mM each of MgCl2, CaCl2, and MnCl2). After overnight incubation at 4° C., the plate was blocked for 1 hour at 30° C., with 3.5% BSA in Buffer B (50 mM Tris pH 7.5, 0.1 M NaCl, and 1 mM each of MgCl2, CaCl2, and MnCl2). After washing 3 times with Buffer B, diluted peptide or protein solutions were combined with 3.5 nM biotinylated fibrinogen in 0.1% BSA/Buffer B and added to the wells, incubating at 30° C. for 2 hr. After washing (3 times, Buffer B), 1:4000 streptavidin-horseradish peroxidase (HRP) was added (Pierce Chemical Co., Rockford, Ill.) for 1 hour at 30° C. After a final washing step (3 times, Buffer B), the plate was developed with Ultra TMB (3,3′,5,5′-tetramentylbenzidine) (Pierce Chemical Co., Rockford, Ill.) for 5 minutes, stopping with an equal volume of 2 M sulfuric acid. Plate absorbances were read at 450 nm, and IC50 values determined using a 4-parameter logistic fit.

T1 sequence (P08514 32-887 limits assumed): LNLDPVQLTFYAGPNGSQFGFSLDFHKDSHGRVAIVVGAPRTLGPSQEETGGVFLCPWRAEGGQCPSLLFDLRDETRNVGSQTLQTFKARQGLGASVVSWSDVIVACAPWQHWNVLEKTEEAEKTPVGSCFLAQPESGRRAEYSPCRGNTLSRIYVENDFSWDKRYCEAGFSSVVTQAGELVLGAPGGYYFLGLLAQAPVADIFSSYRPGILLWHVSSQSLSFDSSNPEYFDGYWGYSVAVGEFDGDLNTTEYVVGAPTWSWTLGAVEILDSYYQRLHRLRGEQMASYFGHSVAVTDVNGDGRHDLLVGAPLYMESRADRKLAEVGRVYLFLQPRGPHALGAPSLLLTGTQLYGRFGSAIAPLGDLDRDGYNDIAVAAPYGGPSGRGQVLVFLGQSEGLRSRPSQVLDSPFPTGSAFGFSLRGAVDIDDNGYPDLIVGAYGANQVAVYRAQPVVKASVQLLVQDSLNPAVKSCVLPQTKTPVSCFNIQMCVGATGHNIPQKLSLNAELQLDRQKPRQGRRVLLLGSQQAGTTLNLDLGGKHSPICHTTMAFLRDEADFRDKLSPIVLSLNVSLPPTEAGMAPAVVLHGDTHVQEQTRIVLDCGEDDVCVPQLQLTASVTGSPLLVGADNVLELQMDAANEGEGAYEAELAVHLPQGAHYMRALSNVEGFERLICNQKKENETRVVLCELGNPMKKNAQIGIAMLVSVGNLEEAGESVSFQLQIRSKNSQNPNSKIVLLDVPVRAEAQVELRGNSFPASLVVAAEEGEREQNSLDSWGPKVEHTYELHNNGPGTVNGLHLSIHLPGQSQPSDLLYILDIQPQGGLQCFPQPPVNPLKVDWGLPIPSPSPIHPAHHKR
T1 sequence (P05106 27-788): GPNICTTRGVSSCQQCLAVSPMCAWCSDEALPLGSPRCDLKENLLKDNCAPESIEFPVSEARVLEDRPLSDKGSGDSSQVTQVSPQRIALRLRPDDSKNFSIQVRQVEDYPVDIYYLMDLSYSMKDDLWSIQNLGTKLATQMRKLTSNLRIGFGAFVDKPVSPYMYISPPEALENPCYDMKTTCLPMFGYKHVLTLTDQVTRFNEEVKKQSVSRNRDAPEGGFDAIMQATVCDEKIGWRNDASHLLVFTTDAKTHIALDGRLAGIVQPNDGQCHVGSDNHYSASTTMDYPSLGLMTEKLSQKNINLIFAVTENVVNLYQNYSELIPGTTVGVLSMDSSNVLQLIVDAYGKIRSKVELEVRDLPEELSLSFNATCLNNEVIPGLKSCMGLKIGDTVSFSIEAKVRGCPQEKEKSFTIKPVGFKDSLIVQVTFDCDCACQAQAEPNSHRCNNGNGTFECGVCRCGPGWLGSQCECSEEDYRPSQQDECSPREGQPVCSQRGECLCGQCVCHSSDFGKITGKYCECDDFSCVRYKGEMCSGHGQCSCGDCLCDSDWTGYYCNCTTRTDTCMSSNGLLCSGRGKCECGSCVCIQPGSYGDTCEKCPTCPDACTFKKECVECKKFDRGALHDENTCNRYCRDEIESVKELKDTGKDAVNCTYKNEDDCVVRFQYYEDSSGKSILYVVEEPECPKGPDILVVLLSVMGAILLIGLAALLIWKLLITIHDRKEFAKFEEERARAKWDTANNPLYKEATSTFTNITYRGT

Compound | Blocking of fibrinogen binding to immobilized GPIIb-IIIa, in words | IC50 (3.5 nM biotinylated fibrinogen, mean +/- spread, N in separate column or in text, read-out: IC50, inhibition of fibrinogen binding to immobilized GPIIb/IIIa)
N=C(N)NCCCC[C@@H]1NC(=O)CCSSC[C@@H](C(=O)N[C@@H](CCCCNC(=O)CCCCCNC(=O)CCN2C(=O)C=CC2=O)C(=O)N[C@@H](CCCCNC(=S)Nc2ccc3c(c2)C(=O)OC32c3ccc(O)cc3Oc3cc(O)ccc32)C(N)=O)NC(=O)[C@@H]2CCCN2C(=O)[C@H](Cc2c[nH]c3ccccc23)NC(=O)[C@H](CC(=O)O)NC(=O)CNC1=O [BHRF-3] ([Mpa][hArg]GDWPCK([Ahx-Propanoyl(3-maleimido)])K(FITC)-NH2; disulfide 1-7) | potently blocked | –
N=C(N)NCCCC[C@@H]1NC(=O)CCSSC[C@@H](C(=O)N[C@@H](CCCCNC(=O)CCCCCNC(=O)CCN2C(=O)C=CC2=O)C(N)=O)NC(=O)[C@@H]2CCCN2C(=O)[C@H](Cc2c[nH]c3ccccc23)NC(=O)[C@H](CC(=O)O)NC(=O)CNC1=O [BHRF-1] ([Mpa][hArg]GDWPCK([Ahx-Propanoyl(3-maleimido)])-NH2; disulfide 1-7) | potently blocked | –
N=C(N)NCCCC[C@@H]1NC(=O)CCSSC[C@@H](C(N)=O)NC(=O)[C@@H]2CCCN2C(=O)[C@H](Cc2c[nH]c3ccccc23)NC(=O)[C@H](CC(=O)O)NC(=O)CNC1=O [Integrelin, reference compound] ([Mpa][hArg]GDWPC-NH2; disulfide 1-7) | – | 1.3 nM
